Source: US20250333394A1, “Tiparp Inhibitor Compounds” (AbbVie Inc., priority 2024, published 2025)

Assays:
DLD-1 BRCA2 (−/−) cells = assay: CellTiter-Glo DLD-1 BRCA2 (−/−) cell assay for PARP1/2 inhibition; type: cell-based; details: Homo sapiens, 144 h, 6 days, read-out: DLD-1 BRCA2 (−/−) CTG EC50
Source text: (§1) The DLD-1 BRCA2 (−/−) CellTiter-Glo® assay measured the synthetic lethality of PARP1/2 inhibitors and was used as a surrogate to allow measurement of activity of both PARP1 and PARP2 in cells. If PARP1 and PARP2 are inhibited and are trapped onto chromatin during DNA replication, there is replication fork stalling and accumulation of double strand breaks. In BR CA wild-type cells, the resulting double strand DNA breaks are repaired via homologous recombination. In cells with mutation of BRCA1 or BRCA2, homologous recombination repair of DNA double strand breaks is defective, and cell death occurs after PARP1/2 inhibitor treatment (Lord C J, Ashworth A. PARP inhibitors: synthetic lethality in the clinic. Science. 2017 Mar. 17; 355(6330):1152-1158). Testing compounds in viability assays with the DLD-1-BR CA 2 (−/−) and DLD-1 parent cell enabled assessment on PARP1/2-dependent (cytotoxicity in the BRCA2 (−/−) cells only) vs. non-selective cytotoxicity in both cell lines.
(§2) Compound stock solutions (10 mM) were serially diluted in 3-fold increments in dimethyl sulfoxide (DMSO). Sample aliquots (120 nL) were dispensed into Corning® 384-well Flat Clear Bottom White Polystyrene TC-treated Microplates (Corning Life Sciences, Corning, NY, USA) using an ECHO® 550 acoustic Labcyte dispenser (Beckman-Coulter Life Sciences, Indianapolis, IN, USA) to achieve concentrations between 30 μM and 0.5 nM in the assay. In the assay, 40 μL of 500 DLD-1 parent cells (HORIZON® Therapeutics, Deerfield, IL, USA) or 40 μL of 1200 DLD-1-BRCA2 (−/−) cells (HORIZON Therapeutics) in complete growth medium containing RPMI 1640 growth medium (ThermoFisher Scientific, Waltham, MA, USA) supplemented with 20 mg/L L-glutamate, 25 mM HEPES (4-(2-hydroxyethyl)-1-piperazineethanesulfonic acid), 10% (v/v) heat inactivated FBS (fetal bovine serum), and 1% (w/v) Penicillin-Streptomycin were added.
(§3) Duplicate cell plates with 40 μL cells/well along with various concentrations of compounds were kept in Nunc™ Square BioAssay Dishes (Thermo Fisher Scientific) at 98% relative humidity in a 5% CO2 incubator at 37° C. for 6 days. On day 7, plates were moved to ambient lab conditions for 10 minutes until the temperature equilibrated. Following equilibration, CellTiter-Glo® Luminescent Cell Viability Assay reagent (Promega™, Madison, WI, USA) was added (15 μL) to each well of the plates. After a 20 minutes incubation, luminescence was detected using a ViewLux™ microplate imager (PerkinElmer, Waltham, MA, USA). Data analysis was performed using GraphPad Prism (Dotmatics, Boston, MA, USA).

TIPARP GST-(TEV) = TIPARP GST-(TEV) (Homo sapiens (Human), UniProt Q7Z3E1); assay: TR-FRET binding assay, TIPARP; details: for IC50: TR-FRET, Probe 1, 2 hours incubation; for PARP1/TIPARP IC50 Ratio: ratio of PARP1 GST IC50 to TIPARP GST-(TEV) IC50
Source text: The full-length cDNA encoding the human TIPARP (NP_001171647.1, UniProtKB-Q7Z3E1) of 657 amino acids was the template to generate the expression construct. […] The TIPARP fusion protein includes GST, glutathione S-transferase, a 26 kDa protein whose DNA sequence is frequently integrated into expression vectors for production of recombinant proteins. A […], was cloned into vector pFastBacTM 1 (Thermo Fisher Scientific) with an N-terminal GST tag followed by a TEV protease site to produce the TIPARP fusion protein, TIPARP GST-(TEV). TR-FRET assays were used to measure the binding of compounds to TIPARP and PARP1, and to characterize biochemical selectivity. Compound stock solutions (10 mM) were serially diluted in 3-fold increments in dimethyl sulfoxide (DMSO). Diluted compounds were dispensed (30 nL) into white ProxiPlate-384-well plates (PerkinElmer, Waltham, MA, USA) using an ECHO® 550 acoustic Labcyte dispenser (Beckman-Coulter Life Sciences, Indianapolis, IN, USA) to achieve a final starting concentration of 30 μM to 0.5 nM in the assay. This was followed by addition of 5 μL of 2× protein/probe mix (Table 2) made in assay buffer (Tris-HCl 50 mM pH 8.0; 5 mM MgCl2; 5 μM ZnCl2; 1 mM DTT (dithiothreitol); 0.15% BSA (bovine serum albumin) (w/v); and 0.01% TritonX-100 (w/v)) at final concentrations listed in Table 2. Subsequently, 5 μL of 2× antibody (Tb-labeled anti-GST antibody, Thermo Fisher Scientific, Waltham, MA, USA) in HEPES buffered saline was added to each well at a final concentration of 1 nM. The samples were then incubated for 2 hours under ambient conditions. Fluorescence was measured and TR-FR ET ratios were determined on an EnVision multimode plate reader (PerkinElmer) using a 520 nanometer (nm) excitation wavelength and collecting fluorescence emission at 495 nm. […] [table]

NCI-H1373 cells = assay: NCI-H1373 CellTiter-Glo cell assay for TIPARP inhibition; type: cell-based, human; details: Homo sapiens, NCI-H1373, 144 h; 6 days, 100 nM 10-Cl-BBQ in medium; read-out: NCI-H1373 CTG EC50
Protocol: The NCI-H1373 CellTiter-Glo® assay was used to determine cell numbers after TIPARP inhibition-induced cell cycle arrest, and enabled screening of compounds for cellular TIPARP inhibition potency.
Compound stock solutions (10 mM) were serially diluted in 3-fold increments in dimethyl sulfoxide. Sample aliquots (120 nL) were dispensed into Corning® 384-well Flat Clear Bottom White Polystyrene TC-treated Microplates (Corning Life Sciences, Corning, NY, USA) using an ECHO® 550 acoustic Labcyte dispenser (Beckman-Coulter Life Sciences, Indianapolis, IN, USA) to achieve final concentrations between 30 μM and 0.5 nM in the assay. This was followed by the addition of 40 μL of 1000 NCI-H1373 cells (ATCC®, Manassas, VA, USA) in complete growth medium RPMI 1640 growth medium (Thermo Fisher Scientific, Waltham, MA, USA) supplemented with 20 mg/L L-glutamate, 25 mM HEPES (4-(2-hydroxyethyl)-1-piperazineethanesulfonic acid), 10% (v/v) heat inactivated FBS (fetal bovine serum), 1% (w/v) penicillin-streptomycin, and 100 nM 10-Cl-BBQ (10-chloro-7H-benzimidazo[2,1-a]benz[de]isoquinolin-7-one, (Tocris, Minneapolis, MN, USA). Duplicate cell plates with 40 μL cells/well along with various concentrations of compounds were kept in Nunc™ Square BioAssay Dishes (Thermo Fisher Scientific) at 98% relative humidity in a 5% C02 incubator at 37° C. for 6 days. On day 7, plates were moved to ambient lab conditions for 10 minutes until the temperature equilibrated. Following equilibration, CellTiter-Glo® Luminescent Cell Viability Assay reagent (Promega™, Madison, WI, USA) was added (15 μL) to each well of the plates. After a 20 minutes incubation, luminescence was detected using a ViewLux™ microplate imager (PerkinElmer, Waltham, MA, USA). Data analysis was performed using GraphPad Prism (Dotmatics, Boston, MA, USA).

DLD-1 parent cells = assay: CellTiter-Glo DLD-1 parent cell assay; type: cell-based; details: Homo sapiens, 144 h, 6 days, read-out: DLD-1 CTG EC50
Source text: as §1, §2, §3

PARP1 GST = PARP1 GST (Homo sapiens (Human), UniProt P09874); assay: TR-FRET binding assay, PARP1; details: Probe 2, 2 hours incubation
Protocol: TR-FRET assays were used to measure the binding of compounds to TIPARP and PARP1, and to characterize biochemical selectivity. Compound stock solutions (10 mM) were serially diluted in 3-fold increments in dimethyl sulfoxide (DMSO). Diluted compounds were dispensed (30 nL) into white ProxiPlate-384-well plates (PerkinElmer, Waltham, MA, USA) using an ECHO® 550 acoustic Labcyte dispenser (Beckman-Coulter Life Sciences, Indianapolis, IN, USA) to achieve a final starting concentration of 30 μM to 0.5 nM in the assay. This was followed by addition of 5 μL of 2× protein/probe mix (Table 2) made in assay buffer (Tris-HCl 50 mM pH 8.0; 5 mM MgCl2; 5 μM ZnCl2; 1 mM DTT (dithiothreitol); 0.15% BSA (bovine serum albumin) (w/v); and 0.01% TritonX-100 (w/v)) at final concentrations listed in Table 2. Subsequently, 5 μL of 2× antibody (Tb-labeled anti-GST antibody, Thermo Fisher Scientific, Waltham, MA, USA) in HEPES buffered saline was added to each well at a final concentration of 1 nM. The samples were then incubated for 2 hours under ambient conditions. Fluorescence was measured and TR-FR ET ratios were determined on an EnVision multimode plate reader (PerkinElmer) using a 520 nanometer (nm) excitation wavelength and collecting fluorescence emission at 495 nm.

TIPARP GST-(TEV), sequence (Q7Z3E1 441-657): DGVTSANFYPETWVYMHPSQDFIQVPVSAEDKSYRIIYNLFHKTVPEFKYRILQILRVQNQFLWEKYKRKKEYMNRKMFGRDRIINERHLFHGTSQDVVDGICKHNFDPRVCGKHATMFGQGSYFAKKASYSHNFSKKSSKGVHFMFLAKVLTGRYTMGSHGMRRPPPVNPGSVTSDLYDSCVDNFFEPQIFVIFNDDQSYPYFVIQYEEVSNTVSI
PARP1 GST, sequence (P09874 whole entry): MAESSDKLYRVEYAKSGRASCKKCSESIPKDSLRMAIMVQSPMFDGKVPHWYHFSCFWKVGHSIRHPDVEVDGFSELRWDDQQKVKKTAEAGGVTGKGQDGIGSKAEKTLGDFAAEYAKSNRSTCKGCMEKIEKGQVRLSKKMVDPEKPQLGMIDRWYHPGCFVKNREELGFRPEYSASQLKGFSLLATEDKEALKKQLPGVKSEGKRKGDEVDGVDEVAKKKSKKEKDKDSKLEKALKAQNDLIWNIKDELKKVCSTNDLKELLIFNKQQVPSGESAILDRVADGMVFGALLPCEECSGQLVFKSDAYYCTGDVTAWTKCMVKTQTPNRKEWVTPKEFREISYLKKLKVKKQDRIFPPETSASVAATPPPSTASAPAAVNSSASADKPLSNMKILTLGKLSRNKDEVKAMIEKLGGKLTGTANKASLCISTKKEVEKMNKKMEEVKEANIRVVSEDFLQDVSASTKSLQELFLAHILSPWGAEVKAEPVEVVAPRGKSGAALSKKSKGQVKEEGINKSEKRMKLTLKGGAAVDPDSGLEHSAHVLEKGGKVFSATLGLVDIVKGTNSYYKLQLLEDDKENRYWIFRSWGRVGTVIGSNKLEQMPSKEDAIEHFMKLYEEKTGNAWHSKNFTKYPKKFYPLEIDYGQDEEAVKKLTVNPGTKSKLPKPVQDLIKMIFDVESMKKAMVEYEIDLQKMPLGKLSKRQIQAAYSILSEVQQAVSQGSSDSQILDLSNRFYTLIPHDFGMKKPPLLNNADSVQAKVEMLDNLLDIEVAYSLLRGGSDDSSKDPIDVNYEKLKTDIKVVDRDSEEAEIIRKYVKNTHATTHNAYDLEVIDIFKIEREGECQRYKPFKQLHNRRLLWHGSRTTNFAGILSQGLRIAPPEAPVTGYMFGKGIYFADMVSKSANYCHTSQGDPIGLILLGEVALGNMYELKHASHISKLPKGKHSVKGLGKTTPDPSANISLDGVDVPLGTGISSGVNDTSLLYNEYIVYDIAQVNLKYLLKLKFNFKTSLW

SMILES | EC50 (DLD-1 BRCA2 (−/−) cells) | IC50 (TIPARP GST-(TEV)) | PARP1/TIPARP IC50 Ratio (TIPARP GST-(TEV)) | EC50 (NCI-H1373 cells) | EC50 (DLD-1 parent cells) | IC50 (PARP1 GST)
C[C@H]1CN(C(=O)[C@H]2C[C@@H](c3c[nH]c(=O)c(C(F)(F)F)c3)C2)CCN1c1ncc(C(C)(C)O)cn1 [Example 10, 5-[(1R,3s)-3-{(3S)-4-[5-(2-hydroxypropan-2-yl)pyrimidin-2-yl]-3-methylpiperazine-1-carbonyl}cyclobutyl]-3-(trifluoromethyl)pyridin-2(1H)-one] | > 30000 nM | 10.1 nM | 305 | 284 nM | > 30000 nM | 3080 nM
C[C@H]1CN(c2ncc(C(C)(C)O)cn2)CCN1C(=O)[C@H]1C[C@@H](c2c[nH]c(=O)c(C(F)(F)F)c2)C1 [Example 11, 5-[(1R,3s)-3-{(2S)-4-[5-(2-hydroxypropan-2-yl)pyrimidin-2-yl]-2-methylpiperazine-1-carbonyl}cyclobutyl]-3-(trifluoromethyl)pyridin-2(1H)-one] | 1180 nM | 10.9 nM | 56.5 | 337 nM | 16000 nM | 616 nM
C[C@@H]1CN(c2ncc(C(F)(F)F)cn2)CCN1C(=O)[C@H]1C[C@@H](Cc2c[nH]c(=O)c(C(F)(F)F)c2)C1 [Example 12, 5-{[(1S,3s)-3-{(2R)-2-methyl-4-[5-(trifluoromethyl)pyrimidin-2-yl]piperazine-1-carbonyl}cyclobutyl]methyl}-3-(trifluoromethyl)pyridin-2(1H)-one] | 5480 nM | 3.16 nM | 1160 | 29.2 nM | 11100 nM | 3650 nM
C[C@@H]1CN(c2ncc(C(F)(F)F)cn2)C[C@H](C)N1C(=O)[C@H]1C[C@@H](Cc2c[nH]c(=O)c(C(F)(F)F)c2)C1 [Example 13, 5-{[(1s,3s)-3-{(2R,6S)-2,6-dimethyl-4-[5-(trifluoromethyl)pyrimidin-2-yl]piperazine-1-carbonyl}cyclobutyl]methyl}-3-(trifluoromethyl)pyridin-2(1H)-one] | 6960 nM | 3.79 nM | 1950 | 33.3 nM | 11100 nM | 7380 nM
C[C@@H]1CN(C(=O)[C@H]2C[C@@H](Cc3c[nH]c(=O)c(C(F)(F)F)c3)C2)C[C@H](C)N1c1ncc(C(F)(F)F)cn1 [Example 14, 5-{[(1s,3s)-3-{(3R,5S)-3,5-dimethyl-4-[5-(trifluoromethyl)pyrimidin-2-yl]piperazine-1-carbonyl}cyclobutyl]methyl}-3-(trifluoromethyl)pyridin-2(1H)-one] | 4490 nM | 2.17 nM | 1890 | 10.9 nM | 14300 nM | 4110 nM
C[C@@H]1CN(C(=O)[C@H]2C[C@@H](Cc3c[nH]c(=O)c(C(F)(F)F)c3)C2)CCN1c1ncc(C(F)(F)F)cn1 [Example 15, 5-{[(1S,3s)-3-{(3R)-3-methyl-4-[5-(trifluoromethyl)pyrimidin-2-yl]piperazine-1-carbonyl}cyclobutyl]methyl}-3-(trifluoromethyl)pyridin-2(1H)-one] | 1380 nM | 2.15 nM | 194 | 14.8 nM | 10300 nM | 417 nM
C[C@H]1CN(C(=O)[C@H]2C[C@@H](Cc3c[nH]c(=O)c(C(F)(F)F)c3)C2)CCN1c1ncc(C(F)(F)F)cn1 [Example 16, 5-{[(1R,3s)-3-{(3S)-3-methyl-4-[5-(trifluoromethyl)pyrimidin-2-yl]piperazine-1-carbonyl}cyclobutyl]methyl}-3-(trifluoromethyl)pyridin-2(1H)-one] | 997 nM | 3.34 nM | 347 | 19.1 nM | 15200 nM | 1160 nM
C[C@H]1CN(c2ncc(C(F)(F)F)cn2)CCN1C(=O)[C@H]1C[C@@H](Cc2c[nH]c(=O)c(C(F)(F)F)c2)C1 [Example 17, 5-{[(1R,3s)-3-{(2S)-2-methyl-4-[5-(trifluoromethyl)pyrimidin-2-yl]piperazine-1-carbonyl}cyclobutyl]methyl}-3-(trifluoromethyl)pyridin-2(1H)-one] | 217 nM | 5 nM | 41.2 | 34.1 nM | 9750 nM | 206 nM
